# In ChEMBL document CHEMBL1201862, “PubChem BioAssay data set” (2004):
#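 Five compound concentrations were applied to cells in 96-well plates for 48 hours; endpoints were derived by simple linear interpolation of the resulting dose-response curve. Here, GI50 denotes the concentration required for 50% inhibition of growth.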 Calls of active or inactive are those of the source. Rule as the data show it: active = GI50 up to about 1.1 µM and inactive = higher.
# Experiments:
# Experiment in all cases: NCI anticancer screen, dose series, 48 h
# [1] = tested on: COLO 205
# [2] = tested on: HCC 2998
# [3] = tested on: HCT-116
# [4] = tested on: HOP-92
# [5] = tested on: K562
# [6] = tested on: KM12
# [7] = tested on: MCF7
# [8] = tested on: MDA-MB-231
# [9] = tested on: MDA-N
# [10] = tested on: MOLT-4
# [11] = tested on: NCI-H226
# [12] = tested on: NCI/ADR-RES
# [13] = tested on: OVCAR-3
# [14] = tested on: OVCAR-8
# [15] = tested on: SK-MEL-5
# [16] = tested on: SNB-19
# [17] = tested on: SNB-75
# [18] = tested on: T47D
# [19] = tested on: TK-10
# [20] = tested on: UO-31
Compound,GI50 [1],GI50 [2],GI50 [3],GI50 [4],GI50 [5],GI50 [6],GI50 [7],GI50 [8],GI50 [9],GI50 [10],GI50 [11],GI50 [12],GI50 [13],GI50 [14],GI50 [15],GI50 [16],GI50 [17],GI50 [18],GI50 [19],GI50 [20]
C/C=C(/C)C(=O)OC1CC(C)[C@H]2CC(=O)C(C)=C2CC1C(C)(C)OC(C)=O (stereo not given in full),17.9 µM (inactive),22.6 µM (inactive),19.6 µM (inactive),19.6 µM (inactive),32.6 µM (inactive),25.9 µM (inactive),40.6 µM (inactive),31.7 µM (inactive),34.2 µM (inactive),26.2 µM (inactive),37.4 µM (inactive),22.8 µM (inactive),20.3 µM (inactive),30.8 µM (inactive),15.9 µM (inactive),34.4 µM (inactive),44.4 µM (inactive),15.4 µM (inactive),28.8 µM (inactive),23.5 µM (inactive)
C=C1c2nc3ccccc3n2C=C(c2ccc(OC)cc2)N1c1ccccc1,5.36 µM (inactive),3.75 µM (inactive),3.95 µM (inactive),30.2 µM (inactive),2.62 µM (inactive),2.62 µM (inactive),4.76 µM (inactive),11.1 µM (inactive),1.43 µM (inactive),3.95 µM (inactive),4.12 µM (inactive),2.34 µM (inactive),6.62 µM (inactive),8.61 µM (inactive),3.99 µM (inactive),11.3 µM (inactive),4.99 µM (inactive),6.4 µM (inactive),32.7 µM (inactive),9.02 µM (inactive)
CCCCCCCCCCCCCCCCCCNc1ccn(C2OC(COP(=O)(O)OCC3OC(n4ccc(N)nc4=O)C(O)C3O)C(O)C2O)c(=O)n1 (stereo not given),47.3 µM (inactive),38.2 µM (inactive),18.8 µM (inactive),> 51.3 µM (inactive),65.8 µM (inactive),> 89.1 µM (inactive),45.2 µM (inactive),> 100 µM (inactive),> 100 µM (inactive),2.45 µM (inactive),> 100 µM (inactive),47.1 µM (inactive),> 100 µM (inactive),20 µM (inactive),> 100 µM (inactive),39.7 µM (inactive),> 100 µM (inactive),> 78.3 µM (inactive),> 100 µM (inactive),42.4 µM (inactive)
OC1(C(O)(c2ccc(-c3ccccc3)cc2)c2ccc(-c3ccccc3)cc2)CCCCC1,> 100 µM (inactive),85.3 µM (inactive),> 100 µM (inactive),> 100 µM (inactive),> 100 µM (inactive),> 100 µM (inactive),96.8 µM (inactive),> 100 µM (inactive),> 100 µM (inactive),23.9 µM (inactive),> 100 µM (inactive),> 100 µM (inactive),> 100 µM (inactive),> 100 µM (inactive),63.4 µM (inactive),> 100 µM (inactive),> 100 µM (inactive),> 100 µM (inactive),> 100 µM (inactive),> 100 µM (inactive)
CC1(C)NC(C)(C)/C(=N\O)C(=NO)/C1=N/O,> 100 µM (inactive),> 100 µM (inactive),> 100 µM (inactive),> 100 µM (inactive),> 100 µM (inactive),> 100 µM (inactive),> 100 µM (inactive),> 100 µM (inactive),> 100 µM (inactive),> 100 µM (inactive),> 100 µM (inactive),> 100 µM (inactive),> 100 µM (inactive),> 100 µM (inactive),> 100 µM (inactive),> 100 µM (inactive),> 100 µM (inactive),> 100 µM (inactive),> 100 µM (inactive),> 100 µM (inactive)
COc1ccc(N2C(=O)C(Cl)C2c2cc3cc(Br)ccc3nc2Cl)cc1 (stereo not given),4.91 µM (inactive),4.09 µM (inactive),4.68 µM (inactive),8.38 µM (inactive),7.24 µM (inactive),10.9 µM (inactive),4.82 µM (inactive),4.57 µM (inactive),5.31 µM (inactive),4.38 µM (inactive),5.62 µM (inactive),5.41 µM (inactive),8.45 µM (inactive),13.4 µM (inactive),4.37 µM (inactive),9.93 µM (inactive),20.5 µM (inactive),15.1 µM (inactive),7.52 µM (inactive),0.701 µM (active)
COc1ccc(/C=C/c2cc(O)cc(OC3OC(CO)C(O)C(O)C3O)c2)cc1O (stereo not given),> 100 µM (inactive),> 100 µM (inactive),68.7 µM (inactive),> 100 µM (inactive),45.1 µM (inactive),18.9 µM (inactive),> 100 µM (inactive),> 100 µM (inactive),> 100 µM (inactive),> 100 µM (inactive),> 100 µM (inactive),94 µM (inactive),> 100 µM (inactive),> 100 µM (inactive),> 100 µM (inactive),> 100 µM (inactive),> 100 µM (inactive),> 100 µM (inactive),> 100 µM (inactive),19.2 µM (inactive)
CCOC(=O)c1c(-c2ccc(OC)cc2)c(C#N)c(=S)n(C2OC(COC(C)=O)C(OC(C)=O)C(OC(C)=O)C2OC(C)=O)c1C (stereo not given),> 100 µM (inactive),> 100 µM (inactive),> 100 µM (inactive),4.32 µM (inactive),38.4 µM (inactive),> 100 µM (inactive),> 100 µM (inactive),> 100 µM (inactive),> 100 µM (inactive),61.1 µM (inactive),> 100 µM (inactive),> 100 µM (inactive),31.5 µM (inactive),> 100 µM (inactive),> 100 µM (inactive),> 100 µM (inactive),12.7 µM (inactive),47.6 µM (inactive),> 100 µM (inactive),1.46 µM (inactive)
Sc1ncnc2c1ncn2Cc1ccco1,> 100 µM (inactive),> 100 µM (inactive),> 100 µM (inactive),> 100 µM (inactive),> 100 µM (inactive),> 100 µM (inactive),> 100 µM (inactive),> 100 µM (inactive),> 100 µM (inactive),> 100 µM (inactive),> 100 µM (inactive),> 100 µM (inactive),> 100 µM (inactive),> 100 µM (inactive),> 100 µM (inactive),> 100 µM (inactive),> 100 µM (inactive),> 100 µM (inactive),> 100 µM (inactive),> 100 µM (inactive)
CC(=O)OC1C(O)COC(O[C@H]2CC[C@]34C[C@]35CC[C@]3(C)C([C@@]6(C)CC[C@@H](C(C)(C)O)O6)[C@@H](O)C[C@@]3(C)C5C[C@H](OC3OCC(O)C(O)C3O)[C@H]4C2(C)C)C1OC1OCC(O)C(O)C1O (stereo not given in full),> 100 µM (inactive),> 100 µM (inactive),> 100 µM (inactive),> 100 µM (inactive),> 100 µM (inactive),> 100 µM (inactive),> 100 µM (inactive),> 100 µM (inactive),> 100 µM (inactive),> 100 µM (inactive),> 100 µM (inactive),> 100 µM (inactive),> 100 µM (inactive),> 100 µM (inactive),> 100 µM (inactive),> 100 µM (inactive),> 100 µM (inactive),> 100 µM (inactive),> 100 µM (inactive),> 100 µM (inactive)
COc1ccc(C(SCCO)(c2ccccc2)c2ccc(OC)cc2)cc1,17.9 µM (inactive),5.4 µM (inactive),8.41 µM (inactive),14.6 µM (inactive),16.7 µM (inactive),5.38 µM (inactive),5.36 µM (inactive),9.64 µM (inactive),5.32 µM (inactive),12.4 µM (inactive),13.6 µM (inactive),15.9 µM (inactive),16.3 µM (inactive),19.2 µM (inactive),8 µM (inactive),8.26 µM (inactive),4.58 µM (inactive),11.9 µM (inactive),18.1 µM (inactive),17.6 µM (inactive)
CCCCCCCCCCCCOCCCOP(=O)([O-])OCC[N+](C)(C)C,6.75 µM (inactive),7.4 µM (inactive),26.4 µM (inactive),19.4 µM (inactive),48.8 µM (inactive),2.95 µM (inactive),45.2 µM (inactive),11.3 µM (inactive),13 µM (inactive),20.2 µM (inactive),24.3 µM (inactive),> 81.1 µM (inactive),51.9 µM (inactive),47.8 µM (inactive),48.6 µM (inactive),20.6 µM (inactive),24.9 µM (inactive),3.64 µM (inactive),3.4 µM (inactive),49.4 µM (inactive)
CO[C@H]1C[C@H](O[C@H]2CC[C@@]3(C)[C@H](CC[C@@H]4[C@@H]3CC[C@]3(C)[C@@H](C5=CC(=O)OC5)CC[C@]43O)C2)O[C@H](C)[C@H]1O,0.0695 µM (active),0.015 µM (active),< 0.01 µM (active),< 0.01 µM (active),< 0.01 µM (active),< 0.011 µM (active),< 0.01 µM (active),0.0498 µM (active),< 0.01 µM (active),< 0.01 µM (active),< 0.0184 µM (active),< 0.01 µM (active),< 0.01 µM (active),< 0.01 µM (active),< 0.01 µM (active),0.0158 µM (active),< 0.0134 µM (active),< 0.01 µM (active),< 0.0246 µM (active),< 0.01 µM (active)
